“And” between values parts separate entries of the source, which are not always exact repeats. Equal entries are not always repeated.
Key:
[1] = Drug tolerability (body weight) in DD013 dedifferentiated liposarcoma xenograft model; format: in vivo, Athymic nude mice; settings: for BWL % / Mouse body weight, Mean: Doxo (8 mg/kg)
Protocol: (§1) Experiments were performed with female Athymic nude mice, 9-10 weeks old obtained from Harlan Laboratories (Udine, Italy). They were maintained under Specific Pathogen Free conditions with constant temperature and humidity, according to the institutional guidelines.
(§2) Tumour growth mice was monitored two/three times a week (depending on tumour growth rate, to avoid unnecessary stress to the animals) by Vernier caliper. Mice were sacrificed when tumour reached a mean weight of 2±0.5 gr. The antitumour activity will be expressed as T/C %, where T and C were the mean tumour weight of treated and control groups, respectively. Mice were monitored daily and weighted at least two times a week. Tolerability was evaluated on the basis of body weight loss (BWL) and clinical observation.

[2] = tested on: DD013 dedifferentiated liposarcoma; test: Antitumour activity in DD013 dedifferentiated liposarcoma xenograft model; format: in vivo, Athymic nude mice; settings: for DD0113 tumour weight, Mean / DD0113 tumour weight, individual mouse: Doxorubicin 8 mg/kg q7dx2
Protocol: as §1, §2
Statistical analysis was performed with GraphPad Prism version 6.01 software (GraphPad software, Inc., La Jolla, CA, USA). ANOVA test was performed to evaluate if there were statistically significant differences between treated and control groups.
Briefly, xenografts were obtained by transplanting 3-4 mm tumour fragments s.c. in the flanks of mice. The growing tumour masses were measured with the aid of a Vernier caliper, and the tumour weights (TW, 1 mm^3=1 mg) were calculated by the formula: length×(width) 2/2. When tumour load achieved about 200-400 mg, mice were randomized into the experimental groups.

COc1cccc2c1C(=O)c1c(O)c3c(c(O)c1C2=O)C[C@@](O)(C(=O)CO)C[C@@H]3O[C@H]1C[C@H](N)[C@H](O)[C@H](C)O1 [Doxo]
BWL % ([1]; day 23 from inoculum): 0.0% | Mouse body weight, Mean ([1]; day 23 from inoculum): 23.7 g | BWL % ([1]; day 26 from inoculum): −2.6% | Mouse body weight, Mean ([1]; day 26 from inoculum): 23.0 g | BWL % ([1]; day 29 from inoculum): −0.3% | Mouse body weight, Mean ([1]; day 29 from inoculum): 23.6 g | BWL % ([1]; day 33 from inoculum): −5.2% | Mouse body weight, Mean ([1]; day 33 from inoculum): 22.4 g | BWL % ([1]; day 36 from inoculum): −1.7% | Mouse body weight, Mean ([1]; day 36 from inoculum): 23.3 g | BWL % ([1]; day 40 from inoculum): 0.7% | Mouse body weight, Mean ([1]; day 40 from inoculum): 23.8 g | BWL % ([1]; day 43 from inoculum): 4.0% | Mouse body weight, Mean ([1]; day 43 from inoculum): 24.6 g | BWL % ([1]; day 47 from inoculum): 8.4% | Mouse body weight, Mean ([1]; day 47 from inoculum): 25.7 g | BWL % ([1]; day 50 from inoculum): 5.1% | Mouse body weight, Mean ([1]; day 50 from inoculum): 24.9 g | BWL % ([1]; day 54 from inoculum): 5.5% | Mouse body weight, Mean ([1]; day 54 from inoculum): 25.0 g | BWL % ([1]; day 58 from inoculum): 5.8% | Mouse body weight, Mean ([1]; day 58 from inoculum): 25.0 g | BWL % ([1]; day 62 from inoculum): 8.9% | Mouse body weight, Mean ([1]; day 62 from inoculum): 25.8 g | BWL % ([1]; day 65 from inoculum): 7.4% | Mouse body weight, Mean ([1]; day 65 from inoculum): 25.4 g | Mouse body weight, Mean ([1]; day 69 from inoculum): 26.6 g | BWL % ([1]; day 72 from inoculum): 10.0% | Mouse body weight, Mean ([1]; day 72 from inoculum): 26.0 g | BWL % ([1]; day 75 from inoculum): 10.3% | Mouse body weight, Mean ([1]; day 75 from inoculum): 26.1 g

COc1cccc2c1C(=O)c1c(O)c3c(c(O)c1C2=O)C[C@@](O)(C(=O)CO)C[C@@H]3O[C@H]1C[C@H](N)[C@H](O)[C@H](C)O1 [Doxorubicin, reference compound]
optimal T/C ([2]; 8 mg/kg i.v. q7dx2): 34.1% | effect on tumour growth ([2]; 8 mg/kg q7dx2): No arrest of tumour growth was observed | DD0113 tumour weight, Mean ([2]; day 23 from inoculum): 199.3 mg | DD0113 tumour weight, individual mouse ([2]; day 23 from inoculum): 302.2 mg and 277.0 mg and 253.6 mg and 228.6 mg and 196.0 mg and 178.0 mg and 147.0 mg and 114.2 mg and 97.6 mg | DD0113 tumour weight, Mean ([2]; day 26 from inoculum): 295.8 mg | DD0113 tumour weight, individual mouse ([2]; day 26 from inoculum): 464.9 mg and 410.3 mg and 365.9 mg and 384.0 mg and 308.8 mg and 283.4 mg and 232.9 mg and 87.4 mg | DD0113 tumour weight, Mean ([2]; day 29 from inoculum): 336.6 mg | DD0113 tumour weight, individual mouse ([2]; day 29 from inoculum): 492.1 mg and 380.4 mg and 478.9 mg and 477.1 mg and 398.0 mg and 313.2 mg and 252.9 mg and 147.9 mg and 89.3 mg | DD0113 tumour weight, Mean ([2]; day 33 from inoculum): 409.1 mg | DD0113 tumour weight, individual mouse ([2]; day 33 from inoculum): 566.5 mg and 526.0 mg and 691.7 mg and 549.0 mg and 444.0 mg and 344.6 mg and 295.0 mg and 150.3 mg | DD0113 tumour weight, Mean ([2]; day 36 from inoculum): 425.8 mg | DD0113 tumour weight, individual mouse ([2]; day 36 from inoculum): 549.6 mg and 572.5 mg and 610.4 mg and 519.4 mg and 503.4 mg and 361.9 mg and 345.6 mg and 240.6 mg | DD0113 tumour weight, Mean ([2]; day 40 from inoculum): 499.7 mg | DD0113 tumour weight, individual mouse ([2]; day 40 from inoculum): 578.4 mg and 652.6 mg and 762.1 mg and 750.9 mg and 531.1 mg and 424.1 mg and 401.6 mg and 244.9 mg and 151.8 mg | DD0113 tumour weight, Mean ([2]; day 43 from inoculum): 543.1 mg | DD0113 tumour weight, individual mouse ([2]; day 43 from inoculum): 529.7 mg and 810.5 mg and 868.0 mg and 780.2 mg and 575.9 mg and 420.0 mg and 428.4 mg and 263.0 mg and 212.3 mg | DD0113 tumour weight, Mean ([2]; day 47 from inoculum): 666.3 mg | DD0113 tumour weight, individual mouse ([2]; day 47 from inoculum): 623.2 mg and 800.6 mg and 669.1 mg and 636.6 mg and 529.5 mg and 430.2 mg and 224.5 mg | DD0113 tumour weight, Mean ([2]; day 50 from inoculum): 716.0 mg | DD0113 tumour weight, individual mouse ([2]; day 50 from inoculum): 561.6 mg and 1194.0 mg and 680.6 mg | DD0113 tumour weight, Mean ([2]; day 54 from inoculum): 810.3 mg | DD0113 tumour weight, individual mouse ([2]; day 54 from inoculum): 776.7 mg and 1306.3 mg and 1175.7 mg and 807.3 mg | DD0113 tumour weight, Mean ([2]; day 58 from inoculum): 958.1 mg | DD0113 tumour weight, individual mouse ([2]; day 58 from inoculum): 819.5 mg and 1324.9 mg and 1508.4 mg and 1392.3 mg | DD0113 tumour weight, Mean ([2]; day 62 from inoculum): 1128.5 mg | DD0113 tumour weight, individual mouse ([2]; day 62 from inoculum): 955.7 mg and 1686.9 mg and 1777.9 mg and 1604.2 mg | DD0113 tumour weight, Mean ([2]; day 65 from inoculum): 1312.4 mg | DD0113 tumour weight, individual mouse ([2]; day 65 from inoculum): 960.1 mg and 1836.1 mg and 2144.7 mg and 1949.8 mg and 1415.2 mg | DD0113 tumour weight, Mean ([2]; day 69 from inoculum): 1491.3 mg | DD0113 tumour weight, individual mouse ([2]; day 69 from inoculum): 1238.0 mg and 2045.0 mg and 2383.0 mg and 2019.6 mg and 1526.2 mg | DD0113 tumour weight, Mean ([2]; day 72 from inoculum): 1712.4 mg | DD0113 tumour weight, individual mouse ([2]; day 72 from inoculum): 1440.5 mg and 2810.6 mg and 2245.9 mg and 1770.1 mg | DD0113 tumour weight, Mean ([2]; day 75 from inoculum): 1970.8 mg | DD0113 tumour weight, individual mouse ([2]; day 75 from inoculum): 1747.2 mg and 3155.1 mg and 2700.8 mg and 2034.9 mg | maximum BWL ([1]; 8 mg/kg, day 33): 5.2%

Reference: patent US12257237B2 (priority 2017, dated 2025)
